Data as given in ChEMBL document CHEMBL3352410 (J Med Chem, 2014).

What was measured:
[1] = molecular target: T1, Kappa-type opioid receptor (Homo sapiens, UniProt P41145); assay: Antagonist activity at human kappa opioid receptor expressed in CHO cells assessed as inhibition of U69,593-stimulated [35S]GTPgammaS binding; assay type: functional, cell-based
[2] = molecular target: T1, Kappa-type opioid receptor; assay: Binding affinity to human kappa opioid receptor expressed in CHO cells; assay type: cell-based
[3] = molecular target: T2, Delta-type opioid receptor (Homo sapiens, UniProt P41143); assay: Binding affinity to human delta opioid receptor expressed in CHO cells; assay type: cell-based
T2 sequence (P41143 whole entry): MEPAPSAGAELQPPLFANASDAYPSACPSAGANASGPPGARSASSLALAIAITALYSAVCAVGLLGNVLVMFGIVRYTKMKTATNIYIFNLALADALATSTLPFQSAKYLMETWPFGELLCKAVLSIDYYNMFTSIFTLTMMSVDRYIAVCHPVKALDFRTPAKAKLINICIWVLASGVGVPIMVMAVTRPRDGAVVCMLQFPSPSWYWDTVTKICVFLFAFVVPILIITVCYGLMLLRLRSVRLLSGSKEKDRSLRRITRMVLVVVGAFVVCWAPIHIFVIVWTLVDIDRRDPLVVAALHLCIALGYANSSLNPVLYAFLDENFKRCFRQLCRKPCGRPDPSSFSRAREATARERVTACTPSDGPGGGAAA

Mu-type opioid receptor [4] = molecular target: T3, Mu-type opioid receptor (Homo sapiens, UniProt P35372); assay: Antagonist activity at human mu opioid receptor expressed in CHO cells assessed as inhibition of DAMGO-stimulated [35S]GTPgammaS binding; assay type: functional, cell-based
T3 sequence (P35372 whole entry): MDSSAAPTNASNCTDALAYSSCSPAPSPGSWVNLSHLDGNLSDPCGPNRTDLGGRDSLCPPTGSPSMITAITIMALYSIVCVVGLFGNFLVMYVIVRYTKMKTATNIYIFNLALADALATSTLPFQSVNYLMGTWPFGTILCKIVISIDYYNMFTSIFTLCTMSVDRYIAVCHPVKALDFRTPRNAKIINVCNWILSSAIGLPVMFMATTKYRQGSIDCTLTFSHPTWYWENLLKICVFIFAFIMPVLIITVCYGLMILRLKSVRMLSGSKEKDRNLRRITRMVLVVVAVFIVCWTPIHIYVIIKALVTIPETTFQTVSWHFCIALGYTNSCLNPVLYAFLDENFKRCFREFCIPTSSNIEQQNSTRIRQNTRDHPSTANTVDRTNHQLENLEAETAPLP

[5] = molecular target: T2, Delta-type opioid receptor; assay: Antagonist activity at human delta opioid receptor expressed in CHO cells assessed as inhibition of DPDPE-stimulated [35S]GTPgammaS binding; assay type: functional, cell-based
Mu-type opioid receptor [6] = molecular target: T3, Mu-type opioid receptor; assay: Binding affinity to human mu opioid receptor expressed in CHO cells; assay type: cell-based

T1 sequence (P41145 whole entry): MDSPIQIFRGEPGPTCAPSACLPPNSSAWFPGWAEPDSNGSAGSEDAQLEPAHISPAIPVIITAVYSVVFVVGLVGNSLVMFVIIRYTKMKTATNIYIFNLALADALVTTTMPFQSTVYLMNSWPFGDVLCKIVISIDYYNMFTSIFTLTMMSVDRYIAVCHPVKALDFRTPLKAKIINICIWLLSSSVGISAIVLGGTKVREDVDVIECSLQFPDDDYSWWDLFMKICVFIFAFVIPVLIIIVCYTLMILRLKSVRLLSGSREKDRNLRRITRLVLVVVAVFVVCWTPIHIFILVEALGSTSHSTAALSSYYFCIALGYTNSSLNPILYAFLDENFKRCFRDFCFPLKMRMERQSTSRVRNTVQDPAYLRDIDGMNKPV

With `C[C@H]1CN(CC[C@H](O)C2CCCCC2)CC[C@@]1(C)c1ccccc1` the Kb [1] was 40.6 nM, the Ki [2] was 749 nM and the Ki [3] was 169 nM. It also gave a Kb (Mu-type opioid receptor [4]) of 1.6 nM, a Kb [5] of 47.1 nM and a Ki (Mu-type opioid receptor [6]) of 7.7 nM.
